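Growth conditions: 96-well plates. Treatment: test compound, 48 hours, 5 concentrations. Analysis: linear interpolation between bracketing concentrations; unreached endpoints set to highest concentration. At the GI50, growth is halved.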 The source made the active and inactive calls. No stated cut-off is given here; in the data, active = GI50 up to about 1.1 µM and inactive = higher.
Assays:
Test in all cases: NCI tumour cell line growth inhibition, 48 h
HCC 2998 = tested on: HCC 2998
M14 = tested on: M14
PC-3 = tested on: PC-3
UACC-62 = tested on: UACC-62
DU-145 = tested on: DU-145
SF-539 = tested on: SF-539
SW-620 = tested on: SW-620
COLO 205 = tested on: COLO 205
SR = tested on: SR
OVCAR-4 = tested on: OVCAR-4
MDA-N = tested on: MDA-N
UACC-257 = tested on: UACC-257
MCF7 = tested on: MCF7
TK-10 = tested on: TK-10
Malme-3M = tested on: Malme-3M
ACHN = tested on: ACHN
CAKI-1 = tested on: CAKI-1
RPMI-8226 = tested on: RPMI-8226
HT-29 = tested on: HT-29
A549 = tested on: A549
786-0 = tested on: 786-0
LOX IMVI = tested on: LOX IMVI
HOP-92 = tested on: HOP-92
NCI-H522 = tested on: NCI-H522
SF-268 = tested on: SF-268
SK-MEL-28 = tested on: SK-MEL-28
SK-OV-3 = tested on: SK-OV-3
HCT-15 = tested on: HCT-15
NCI-H23 = tested on: NCI-H23
CCRF-CEM = tested on: CCRF-CEM
U-251 = tested on: U-251
NCI-H226 = tested on: NCI-H226
SK-MEL-2 = tested on: SK-MEL-2
SF-295 = tested on: SF-295
EKVX = tested on: EKVX
IGROV-1 = tested on: IGROV-1
MDA-MB-231 = tested on: MDA-MB-231
K562 = tested on: K562
BT-549 = tested on: BT-549
HCT-116 = tested on: HCT-116
T47D = tested on: T47D
SNB-19 = tested on: SNB-19
Hs-578T = tested on: Hs-578T
MDA-MB-435 = tested on: MDA-MB-435
SNB-75 = tested on: SNB-75
SN12C = tested on: SN12C
HOP-62 = tested on: HOP-62
OVCAR-8 = tested on: OVCAR-8
A498 = tested on: A498
KM12 = tested on: KM12
OVCAR-3 = tested on: OVCAR-3
NCI-H460 = tested on: NCI-H460
UO-31 = tested on: UO-31
RXF 393 = tested on: RXF 393
OVCAR-5 = tested on: OVCAR-5
SK-MEL-5 = tested on: SK-MEL-5
HL-60 = tested on: HL-60
MOLT-4 = tested on: MOLT-4
NCI/ADR-RES = tested on: NCI/ADR-RES

SMILES: C=C1CC23CCC4C(C)(C(=O)O)CCCC4(C)C2CCC1C3 (centres undefined)
- GI50 (HCC 2998): 17.1 µM (inactive)
- GI50 (M14): 56 µM (inactive)
- GI50 (PC-3): 37.7 µM (inactive)
- GI50 (UACC-62): 52.4 µM (inactive)
- GI50 (DU-145): 65.3 µM (inactive)
- GI50 (SF-539): 74 µM (inactive)
- GI50 (SW-620): 30.3 µM (inactive)
- GI50 (COLO 205): 19.7 µM (inactive)
- GI50 (SR): 33.3 µM (inactive)
- GI50 (OVCAR-4): 58.5 µM (inactive)
- GI50 (MDA-N): 64 µM (inactive)
- GI50 (UACC-257): 36.8 µM (inactive)
- GI50 (MCF7): 47.3 µM (inactive)
- GI50 (TK-10): 38.4 µM (inactive)
- GI50 (Malme-3M): 94 µM (inactive)
- GI50 (ACHN): 36.5 µM (inactive)
- GI50 (CAKI-1): 22.3 µM (inactive)
- GI50 (RPMI-8226): 47.4 µM (inactive)
- GI50 (HT-29): 42.7 µM (inactive)
- GI50 (A549): 35.5 µM (inactive)
- GI50 (786-0): 40.6 µM (inactive)
- GI50 (LOX IMVI): 30.7 µM (inactive)
- GI50 (HOP-92): 32.8 µM (inactive)
- GI50 (NCI-H522): 23.8 µM (inactive)
- GI50 (SF-268): 63.1 µM (inactive)
- GI50 (SK-MEL-28): > 100 µM (inactive)
- GI50 (SK-OV-3): 44.5 µM (inactive)
- GI50 (HCT-15): 36.2 µM
- GI50 (NCI-H23): 41.9 µM (inactive)
- GI50 (CCRF-CEM): 25.1 µM (inactive)
- GI50 (U-251): 48.1 µM (inactive)
- GI50 (NCI-H226): 55.7 µM (inactive)
- GI50 (SK-MEL-2): 42.3 µM (inactive)
- GI50 (SF-295): 35.3 µM (inactive)
- GI50 (EKVX): 20.6 µM (inactive)
- GI50 (IGROV-1): 24.4 µM (inactive)
- GI50 (MDA-MB-231): 25.9 µM (inactive)
- GI50 (K562): 46.3 µM (inactive)
- GI50 (BT-549): 26.3 µM (inactive)
- GI50 (HCT-116): 32.7 µM (inactive)
- GI50 (T47D): 38 µM (inactive)
- GI50 (SNB-19): 53.1 µM (inactive)
- GI50 (Hs-578T): 44.3 µM (inactive)
- GI50 (MDA-MB-435): 62.1 µM (inactive)
- GI50 (SNB-75): 47.8 µM (inactive)
- GI50 (SN12C): 38 µM (inactive)
- GI50 (HOP-62): > 100 µM (inactive)
- GI50 (OVCAR-8): 41.7 µM (inactive)
- GI50 (A498): 39.5 µM (inactive)
- GI50 (KM12): 41.6 µM (inactive)
- GI50 (OVCAR-3): 30.4 µM (inactive)
- GI50 (NCI-H460): 21 µM (inactive)
- GI50 (UO-31): 28.8 µM (inactive)
- GI50 (RXF 393): 33.5 µM (inactive)
- GI50 (OVCAR-5): 95.3 µM (inactive)

SMILES: CSC1=C(C#N)C(=S)N=C(N)C1C(=O)Nc1ccc(C)cc1 (centres undefined)
- GI50 (HCC 2998): > 100 µM (inactive)
- GI50 (M14): > 100 µM (inactive)
- GI50 (PC-3): > 100 µM (inactive)
- GI50 (UACC-62): > 100 µM (inactive)
- GI50 (DU-145): > 100 µM (inactive)
- GI50 (SF-539): > 100 µM (inactive)
- GI50 (SW-620): > 100 µM (inactive)
- GI50 (COLO 205): > 100 µM (inactive)
- GI50 (SR): > 100 µM (inactive)
- GI50 (OVCAR-4): > 100 µM (inactive)
- GI50 (MDA-N): > 100 µM (inactive)
- GI50 (UACC-257): > 100 µM (inactive)
- GI50 (TK-10): > 100 µM (inactive)
- GI50 (Malme-3M): > 100 µM (inactive)
- GI50 (CAKI-1): > 100 µM (inactive)
- GI50 (RPMI-8226): > 100 µM (inactive)
- GI50 (HT-29): > 100 µM (inactive)
- GI50 (A549): > 100 µM (inactive)
- GI50 (SK-MEL-5): > 100 µM (inactive)
- GI50 (786-0): > 100 µM (inactive)
- GI50 (LOX IMVI): > 100 µM (inactive)
- GI50 (NCI-H522): 32 µM (inactive)
- GI50 (SF-268): > 100 µM (inactive)
- GI50 (SK-MEL-28): > 100 µM (inactive)
- GI50 (SK-OV-3): > 100 µM (inactive)
- GI50 (HCT-15): > 100 µM
- GI50 (NCI-H23): > 100 µM (inactive)
- GI50 (CCRF-CEM): > 100 µM (inactive)
- GI50 (U-251): > 100 µM (inactive)
- GI50 (NCI-H226): 60.1 µM (inactive)
- GI50 (SK-MEL-2): > 100 µM (inactive)
- GI50 (EKVX): > 100 µM (inactive)
- GI50 (IGROV-1): > 100 µM (inactive)
- GI50 (MDA-MB-231): > 100 µM (inactive)
- GI50 (K562): > 100 µM (inactive)
- GI50 (HL-60): > 100 µM (inactive)
- GI50 (BT-549): > 100 µM (inactive)
- GI50 (MOLT-4): > 100 µM (inactive)
- GI50 (HCT-116): 81.5 µM (inactive)
- GI50 (T47D): > 100 µM (inactive)
- GI50 (SNB-19): > 100 µM (inactive)
- GI50 (Hs-578T): > 100 µM (inactive)
- GI50 (MDA-MB-435): > 100 µM (inactive)
- GI50 (SNB-75): > 100 µM (inactive)
- GI50 (SN12C): > 100 µM (inactive)
- GI50 (OVCAR-8): > 100 µM (inactive)
- GI50 (A498): 68.9 µM (inactive)
- GI50 (KM12): > 100 µM (inactive)
- GI50 (OVCAR-3): > 100 µM (inactive)
- GI50 (NCI-H460): > 100 µM (inactive)
- GI50 (UO-31): 64 µM (inactive)
- GI50 (NCI/ADR-RES): > 100 µM (inactive)
- GI50 (RXF 393): > 100 µM (inactive)
- GI50 (OVCAR-5): > 100 µM (inactive)

SMILES: CCN(CC)CCNc1n[n+]([O-])c2cc([N+](=O)[O-])ccc2[n+]1[O-]
- GI50 (M14): 0.587 µM (active)
- GI50 (COLO 205): 0.605 µM (active)
- GI50 (OVCAR-4): 1.31 µM (inactive)
- GI50 (MDA-N): 0.863 µM (active)
- GI50 (CAKI-1): 0.337 µM (active)
- GI50 (HT-29): 0.374 µM (active)
- GI50 (A549): 0.752 µM (active)
- GI50 (SK-MEL-5): 0.714 µM (active)
- GI50 (LOX IMVI): 0.601 µM (active)
- GI50 (SF-268): 1.11 µM (active)
- GI50 (SK-MEL-28): 6.32 µM (inactive)
- GI50 (SK-OV-3): 1.05 µM (active)
- GI50 (U-251): 1.08 µM (active)
- GI50 (NCI-H226): 1.7 µM (inactive)
- GI50 (EKVX): 1.98 µM (inactive)
- GI50 (IGROV-1): 0.191 µM (active)
- GI50 (BT-549): 2.37 µM (inactive)
- GI50 (HCT-116): 0.483 µM (active)
- GI50 (SNB-19): 1.4 µM (inactive)
- GI50 (Hs-578T): 2.59 µM (inactive)
- GI50 (MDA-MB-435): 1.38 µM (inactive)
- GI50 (HOP-62): 0.661 µM (active)
- GI50 (OVCAR-8): 0.538 µM (active)
- GI50 (A498): 1.79 µM (inactive)
- GI50 (KM12): 0.948 µM (active)
- GI50 (OVCAR-3): 0.893 µM (active)
- GI50 (UO-31): 2.94 µM (inactive)
- GI50 (NCI/ADR-RES): 1.27 µM (inactive)
- GI50 (RXF 393): 1.52 µM (inactive)
- GI50 (OVCAR-5): 1.92 µM (inactive)
